Consider four sequences from doi:10.1101/2025.10.06.680748v1 (bioRxiv, 2025).

The target in the test is T1, Fibroblast Activation Protein Alpha (FAP) (Homo sapiens, UniProt Q12884).
T1 sequence (Q12884 27-760 limits assumed): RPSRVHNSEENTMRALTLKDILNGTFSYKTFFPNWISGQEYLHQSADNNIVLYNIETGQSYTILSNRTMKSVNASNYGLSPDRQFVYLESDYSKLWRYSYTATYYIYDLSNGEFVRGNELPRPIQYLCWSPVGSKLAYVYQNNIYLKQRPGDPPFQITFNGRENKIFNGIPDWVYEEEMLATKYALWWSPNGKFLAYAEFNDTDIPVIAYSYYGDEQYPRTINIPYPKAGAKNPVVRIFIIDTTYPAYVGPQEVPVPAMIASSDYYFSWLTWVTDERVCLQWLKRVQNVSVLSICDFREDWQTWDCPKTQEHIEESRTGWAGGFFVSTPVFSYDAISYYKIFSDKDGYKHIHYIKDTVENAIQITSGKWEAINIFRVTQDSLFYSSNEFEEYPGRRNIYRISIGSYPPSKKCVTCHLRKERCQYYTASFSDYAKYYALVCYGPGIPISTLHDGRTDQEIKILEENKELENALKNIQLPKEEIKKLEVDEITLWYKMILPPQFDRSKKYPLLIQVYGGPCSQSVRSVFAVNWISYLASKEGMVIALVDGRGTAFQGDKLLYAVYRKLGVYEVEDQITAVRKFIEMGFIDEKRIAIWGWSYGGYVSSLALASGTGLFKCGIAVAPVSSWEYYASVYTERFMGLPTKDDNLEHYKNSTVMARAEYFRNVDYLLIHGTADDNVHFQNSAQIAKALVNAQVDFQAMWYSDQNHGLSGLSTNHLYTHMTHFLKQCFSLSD
As to the kind of experiment: FAP substrate kinetics assay with naïve substrate library. It counts as biochemical. The following applies: from the observed C-terminal product.
For the sequence GPGVLSEKHAGIEGR [SL11B_022414], the “Dipeptidyl? (substrate product pair cleaved by FAP as dipeptidyl exopeptidase)” value (“Dipeptidyl?” below) is “Yes”.

Regarding GPIMPATVSGGIEGR [SL11B_020678], the “Dipeptidyl?” value is given as “Yes”.

As for GSFHVPETHSWLVPR [SL11C_008744], the “Dipeptidyl?” value is “No”.

Turning to GSNNGQFNMVPLVPR [SL11C_037297], the “Dipeptidyl?” value is reported as “Yes”.
